# Marks after values point to notes of the source that are not given here.
# System: ovariectomized rat model of osteoporosis
# Test: Bone histomorphometry of tibia trabecular bone with micro-CT
# Format: in vivo
# Settings: OVX rats, DVAB composition 0.2 g/kg, positive 0.1 mg/5 ml/kg ethinylestridiol, 20 weeks
# Procedure: In an ovariectomized rat model of osteoporosis, rats were divided into sham (5 ml/kg ddH2O without ovariectomy) and ovariectomized (OVX) groups. The OVX rats were then subdivided into two groups orally treated with 5 ml/kg ddH2O (control group) and DVAB composition (0.2 g/kg) daily for 20 weeks. The positive group refers to rats receiving 0.1 mg/5 ml/kg of ethinylestridiol.
# Biomechanical strength also was measured by three-point bending test of femur and compression test of vertebra. Furthermore, the tibia from rats was measured by cancellous bone histomorphometry with micro-CT. In this study, percentage of bone volume (BV/TV), trabecular thickness (Tb, Th), trabecular number (Tb, N), trabecular separation (Tb, Sp) and structure model index (SMI) were measured.
smiles,measurement,value
"C#C[C@]1(O)CC[C@H]2[C@@H]3CCc4cc(O)ccc4[C@H]3CC[C@@]21C [Positive Control, ethinylestridiol]",BV/TV,25.69 +/− 10.41* %
same,SMI,1.29 +/− 0.52^#
same,Tb.N,0.0028 +/− 0.0010* 1/μm
same,Tb.Sp,255.99 +/− 94.24* μm
same,Tb.Th,90.29 +/− 4.01 μm

# Reference: patent publication US8765188B2, “Composition for treating and/or preventing osteoporosis” (Taipei Medical University, priority 2011, dated 2014)
